Data reported in PubChem BioAssay (NCI).
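Where inhibition never reached the appropriate level, the endpoint shown equals the highest concentration tested. Otherwise, values were interpolated linearly from a five-concentration, 48-hour dose response in 96-well plates. TGI: total growth inhibition.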

Experiments:
Experiment in all cases: growth of human tumour cells (NCI), 48 h
[1] = system: M14 melanoma
[2] = system: IGROV1 ovarian
[3] = system: OVCAR-4 ovarian
[4] = system: KM12 colon
[5] = system: LXFL 529 NSCLC
[6] = system: SK-MEL-2 melanoma
[7] = system: HOP-62 NSCLC
[8] = system: HOP-92 NSCLC
[9] = system: M19-MEL melanoma
[10] = system: HL-60(TB) leukemia
[11] = system: UACC-62 melanoma
[12] = system: K-562 leukemia
[13] = system: HCC-2998 colon
[14] = system: MOLT-4 leukemia
[15] = system: LOX IMVI melanoma
[16] = system: NCI-H226 lung
[17] = system: UO-31 renal
[18] = system: CCRF-CEM leukemia
[19] = system: UACC-257 melanoma
[20] = system: NCI-H460 lung
[21] = system: NCI-H522 lung
[22] = system: HCT-15 colon
[23] = system: EKVX NSCLC
[24] = system: SNB-19 CNS
[25] = system: SF-295 CNS
[26] = system: U251 CNS
[27] = system: SF-268 CNS
[28] = system: COLO 205 colon
[29] = system: SK-MEL-28 melanoma
[30] = system: ACHN renal
[31] = system: SR leukemia
[32] = system: DMS 273 small cell lung
[33] = system: A498 renal
[34] = system: NCI-H23 lung
[35] = system: SW-620 colon
[36] = system: DLD-1 colon
[37] = system: CAKI-1 renal
[38] = system: RXF 393 renal
[39] = system: OVCAR-8 ovarian
[40] = system: SF-539 CNS
[41] = system: HCT-116 colon
[42] = system: OVCAR-5 ovarian
[43] = system: A549 NSCLC
[44] = system: SN12C renal
[45] = system: SNB-78 CNS
[46] = system: TK-10 renal
[47] = system: SNB-75 CNS
[48] = system: HT29 colon
[49] = system: KM20L2 colon
[50] = system: RPMI-8226 leukemia
[51] = system: SK-MEL-5 melanoma
[52] = system: SK-OV-3 ovarian
[53] = system: PC-3 prostate
[54] = system: BT-549 breast
[55] = system: MDA-N
[56] = system: OVCAR-3 ovarian
[57] = system: 786-0 renal
[58] = system: MALME-3M melanoma
[59] = system: MCF7 breast
[60] = system: MDA-MB-435
[61] = system: NCI/ADR-RES ovarian
[62] = system: DU-145 prostate
[63] = system: T-47D breast
[64] = system: MDA-MB-231 breast
[65] = system: HS 578T breast

**Q.** What does the source list for `COc1cccc(NC(=O)C(=O)C(C(=O)c2ccccc2F)C2OC(=O)c3ccccc32)c1` (stereo not given)?
**A.** TGI [1]: > 100 µM; TGI [2]: > 100 µM; TGI [3]: > 100 µM; TGI [4]: > 100 µM; TGI [5]: > 100 µM; TGI [6]: 75.2 µM; TGI [7]: > 100 µM; TGI [8]: > 100 µM; TGI [9]: > 100 µM; TGI [10]: 54.1 µM; TGI [11]: > 100 µM; TGI [12]: > 100 µM; TGI [13]: 39.2 µM; TGI [14]: > 100 µM; TGI [15]: 63.3 µM; TGI [16]: 63.5 µM; TGI [17]: > 100 µM; TGI [18]: 62.3 µM; TGI [19]: > 100 µM; TGI [20]: > 100 µM; TGI [21]: 40.7 µM; TGI [22]: > 100 µM; TGI [23]: > 100 µM; TGI [24]: > 100 µM; TGI [25]: > 100 µM; TGI [26]: 36.2 µM; TGI [27]: > 100 µM; TGI [28]: 39.5 µM; TGI [29]: > 100 µM; TGI [30]: > 100 µM; TGI [31]: 48.5 µM; TGI [32]: > 100 µM; TGI [33]: > 100 µM; TGI [34]: 98.1 µM; TGI [35]: > 100 µM; TGI [36]: > 100 µM; TGI [37]: > 100 µM; TGI [38]: 63.6 µM; TGI [39]: 60.9 µM; TGI [40]: 57.3 µM; TGI [41]: 46.1 µM; TGI [42]: > 100 µM; TGI [43]: > 100 µM; TGI [44]: > 100 µM; TGI [45]: > 100 µM; TGI [46]: > 100 µM; TGI [47]: 70.9 µM; TGI [48]: > 100 µM; TGI [49]: > 100 µM; TGI [50]: 96.1 µM; TGI [51]: > 100 µM; TGI [52]: > 100 µM

**Q.** How did the TGI [1] turn out when `CCOC(=O)C(C(=S)SC)c1nn2c(=O)cc(C)nc2s1` (stereo not given) was run?
**A.** Its TGI is 29.8 µM.

**Q.** What about the TGI [2] of the same compound?
**A.** Its TGI is 38.1 µM.

**Q.** What about the TGI [3] of the same compound?
**A.** The TGI was 58.4 µM.

**Q.** What about the TGI [4] of the same compound?
**A.** The TGI was 65.3 µM.

**Q.** What about the TGI [6] of the same compound?
**A.** Its TGI is 41.5 µM.

**Q.** And the TGI [53]?
**A.** Its TGI is 37.3 µM.

**Q.** And the TGI [7]?
**A.** The TGI was 42.7 µM.

**Q.** And the TGI [8]?
**A.** The TGI was 43.9 µM.

**Q.** What about the TGI [10] of the same compound?
**A.** Its TGI is 35.3 µM.

**Q.** And the TGI [11]?
**A.** Its TGI is 47.6 µM.

**Q.** And the TGI [12]?
**A.** The TGI was 34.9 µM.

**Q.** What about the TGI [54] of the same compound?
**A.** Its TGI is 34.2 µM.

**Q.** And the TGI [55]?
**A.** The TGI was 29.8 µM.

**Q.** What about the TGI [56] of the same compound?
**A.** Its TGI is 34.8 µM.

**Q.** What about the TGI [13] of the same compound?
**A.** Its TGI is 47.2 µM.

**Q.** And the TGI [14]?
**A.** Its TGI is 44.2 µM.

**Q.** And the TGI [15]?
**A.** The TGI was 29.4 µM.

**Q.** And the TGI [16]?
**A.** Its TGI is 34.6 µM.

**Q.** And the TGI [57]?
**A.** Its TGI is 36.1 µM.

**Q.** What about the TGI [17] of the same compound?
**A.** The TGI was 40 µM.

**Q.** What about the TGI [18] of the same compound?
**A.** The TGI was 77.5 µM.

**Q.** And the TGI [19]?
**A.** The TGI was 44.2 µM.

**Q.** And the TGI [20]?
**A.** The TGI was 35.6 µM.

**Q.** And the TGI [21]?
**A.** The TGI was 42.5 µM.

**Q.** And the TGI [22]?
**A.** Its TGI is 35.3 µM.

**Q.** And the TGI [23]?
**A.** Its TGI is 34.3 µM.

**Q.** What about the TGI [58] of the same compound?
**A.** The TGI was 31 µM.

**Q.** And the TGI [24]?
**A.** Its TGI is 43.7 µM.

**Q.** What about the TGI [25] of the same compound?
**A.** The TGI was 44.6 µM.

**Q.** What about the TGI [59] of the same compound?
**A.** Its TGI is 33.1 µM.

**Q.** And the TGI [26]?
**A.** Its TGI is 30.6 µM.

**Q.** What about the TGI [27] of the same compound?
**A.** Its TGI is 34 µM.

**Q.** What about the TGI [28] of the same compound?
**A.** The TGI was 47.5 µM.

**Q.** And the TGI [29]?
**A.** The TGI was 34.8 µM.

**Q.** What about the TGI [60] of the same compound?
**A.** The TGI was 32.4 µM.

**Q.** What about the TGI [30] of the same compound?
**A.** Its TGI is 37.8 µM.

**Q.** And the TGI [31]?
**A.** The TGI was 47.1 µM.

**Q.** What about the TGI [34] of the same compound?
**A.** Its TGI is 39 µM.

**Q.** And the TGI [35]?
**A.** The TGI was 37.2 µM.

**Q.** And the TGI [37]?
**A.** Its TGI is 37.3 µM.

**Q.** What about the TGI [38] of the same compound?
**A.** Its TGI is 39.8 µM.

**Q.** And the TGI [61]?
**A.** Its TGI is 54.8 µM.

**Q.** What about the TGI [39] of the same compound?
**A.** Its TGI is 35.5 µM.

**Q.** What about the TGI [40] of the same compound?
**A.** Its TGI is 36 µM.

**Q.** And the TGI [41]?
**A.** The TGI was 34.3 µM.

**Q.** What about the TGI [42] of the same compound?
**A.** Its TGI is 38.7 µM.

**Q.** And the TGI [43]?
**A.** The TGI was 37 µM.

**Q.** And the TGI [62]?
**A.** Its TGI is 32.8 µM.

**Q.** What about the TGI [63] of the same compound?
**A.** The TGI was 42.6 µM.

**Q.** And the TGI [44]?
**A.** Its TGI is 34.2 µM.

**Q.** And the TGI [46]?
**A.** The TGI was 61.9 µM.

**Q.** And the TGI [47]?
**A.** The TGI was 41.3 µM.

**Q.** What about the TGI [48] of the same compound?
**A.** Its TGI is 36.9 µM.

**Q.** And the TGI [50]?
**A.** The TGI was 48.7 µM.

**Q.** What about the TGI [64] of the same compound?
**A.** Its TGI is 37.9 µM.

**Q.** And the TGI [65]?
**A.** The TGI was 44.9 µM.

**Q.** And the TGI [51]?
**A.** The TGI was 35.1 µM.

**Q.** What about the TGI [52] of the same compound?
**A.** Its TGI is 47.4 µM.
